Test results published in article PMC9112332, “Structure-Based Design of α-Substituted Mercaptoacetamides as Inhibitors of the Virulence Factor LasB from Pseudomonas aeruginosa” (ACS Infectious Diseases, 2022).
Read-outs that look alike come from different tables or passages of the source.

Legend:
LasB [1] = molecular target: T1, LasB (Pseudomonas aeruginosa, UniProt Q02RJ6); conditions: Figure 1; read-out: IC50 (reported LasB inhibitors, Figure 1); cited from earlier work
ColH-PD = ColH-PD (Hathewaya histolytica, UniProt Q46085); assay: biochemical; parameters: species or system C. histolyticum
P. aeruginosa PA14 = assay: Antibacterial activity (MIC) assay; format: cell-based, Pseudomonas aeruginosa
MMP-1 = molecular target: T2, MMP-1 (Homo sapiens, UniProt P03956); assay: Human off-target inhibition assay, MMP-1; format: biochemical
T2 sequence (P03956 100-469): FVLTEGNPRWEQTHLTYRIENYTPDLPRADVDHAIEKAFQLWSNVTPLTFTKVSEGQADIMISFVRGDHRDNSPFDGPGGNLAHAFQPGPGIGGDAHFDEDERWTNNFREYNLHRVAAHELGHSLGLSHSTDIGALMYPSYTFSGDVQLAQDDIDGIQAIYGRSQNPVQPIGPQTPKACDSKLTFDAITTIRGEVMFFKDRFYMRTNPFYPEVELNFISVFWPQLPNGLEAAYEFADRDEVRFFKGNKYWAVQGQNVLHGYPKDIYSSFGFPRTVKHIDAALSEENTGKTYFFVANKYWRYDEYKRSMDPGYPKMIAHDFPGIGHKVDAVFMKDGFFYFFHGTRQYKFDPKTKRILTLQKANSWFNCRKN

MMP-2 = molecular target: T3, MMP-2 (Homo sapiens, UniProt P08253); assay: Human off-target inhibition assay, MMP-2; format: biochemical
T3 sequence (P08253 110-660): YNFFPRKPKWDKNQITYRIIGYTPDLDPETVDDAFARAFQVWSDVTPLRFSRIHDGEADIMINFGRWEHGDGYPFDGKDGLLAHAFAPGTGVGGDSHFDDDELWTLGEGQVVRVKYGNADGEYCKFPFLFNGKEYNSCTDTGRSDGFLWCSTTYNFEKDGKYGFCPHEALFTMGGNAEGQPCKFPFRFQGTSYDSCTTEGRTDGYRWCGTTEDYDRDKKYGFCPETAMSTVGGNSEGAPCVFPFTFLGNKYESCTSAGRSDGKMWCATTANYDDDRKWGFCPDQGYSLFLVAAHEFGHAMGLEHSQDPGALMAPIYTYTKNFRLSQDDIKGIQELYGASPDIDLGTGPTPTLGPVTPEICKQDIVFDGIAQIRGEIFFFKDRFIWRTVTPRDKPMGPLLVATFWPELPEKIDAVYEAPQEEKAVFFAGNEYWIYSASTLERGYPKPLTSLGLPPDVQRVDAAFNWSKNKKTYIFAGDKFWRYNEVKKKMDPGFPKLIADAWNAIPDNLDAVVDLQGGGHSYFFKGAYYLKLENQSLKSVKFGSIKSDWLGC

MMP-3 = MMP-3 (Homo sapiens, UniProt P08254); assay: Human off-target inhibition assay, MMP-3; format: biochemical
MMP-7 = molecular target: T4, MMP-7 (Homo sapiens, UniProt P09237); assay: Human off-target inhibition assay, MMP-7; format: biochemical
T4 sequence (P09237 95-267): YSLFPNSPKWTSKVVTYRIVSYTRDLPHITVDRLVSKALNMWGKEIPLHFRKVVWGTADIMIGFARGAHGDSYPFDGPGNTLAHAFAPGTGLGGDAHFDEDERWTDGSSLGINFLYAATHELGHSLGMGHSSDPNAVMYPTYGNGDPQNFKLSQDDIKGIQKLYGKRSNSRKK

MMP-8 = MMP-8 (Homo sapiens, UniProt P22894); assay: Human off-target inhibition assay, MMP-8; format: biochemical
MMP-14 = MMP-14 (Homo sapiens, UniProt P50281); assay: Human off-target inhibition assay, MMP-14; format: biochemical
ADAM17 = ADAM17 (Homo sapiens, UniProt P78536); assay: Human off-target inhibition assay, ADAM17 (TACE); format: biochemical
HDAC-3 = HDAC-3 (Homo sapiens, UniProt O15379); assay: Human off-target inhibition assay, HDAC-3; format: biochemical
Protocol: (§1) Table 3 Activities of Four LasB Inhibitors against the Selected MMPs (% of inhibition at 100 μM) and Further Human Off-Targets ^a | column: 3; 12; 13; 23

HDAC-8 = molecular target: T5, HDAC-8 (Homo sapiens, UniProt Q9BY41); assay: Human off-target inhibition assay, HDAC-8; format: biochemical
T5 sequence (Q9BY41 1-377): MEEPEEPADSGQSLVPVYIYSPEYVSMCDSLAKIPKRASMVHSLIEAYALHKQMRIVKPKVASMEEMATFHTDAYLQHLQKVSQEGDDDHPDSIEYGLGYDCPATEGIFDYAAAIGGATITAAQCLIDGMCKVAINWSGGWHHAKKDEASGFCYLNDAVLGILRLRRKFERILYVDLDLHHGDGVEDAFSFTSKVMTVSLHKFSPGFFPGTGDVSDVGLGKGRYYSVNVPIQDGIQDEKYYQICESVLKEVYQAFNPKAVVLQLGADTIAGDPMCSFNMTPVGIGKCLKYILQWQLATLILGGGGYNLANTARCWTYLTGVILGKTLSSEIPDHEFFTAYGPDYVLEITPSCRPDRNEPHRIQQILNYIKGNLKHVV
Protocol: as §1

[2] = Cytotoxicity assay, HepG2; format: cell-based; conditions: HepG2 cells; human hepatoma cell line
[3] = Cytotoxicity assay, HEK293; format: cell-based; conditions: HEK293 cells; human embryonic kidney cells
Cytotoxicity assay, A549 = format: cell-based; conditions: A549 cells; adenocarcinomic human alveolar basal epithelial cells
zebrafish embryos = assay: Zebrafish embryo toxicity (maximum tolerated concentration) assay; format: in vivo
[4] = system: A549 cells treated with ΔlasB PA14 supernatant; format: cell-based, human; conditions: 15% (v/v) ΔlasB PA14 supernatant, MTT
G. mellonella larvae = assay: In vivo Galleria mellonella virulence assay; conditions: compound with wt PA14 supernatant, after 6 days
[5] = system: A549 cells treated with wt PA14 supernatant; conditions: 15% (v/v) wt PA14 supernatant, MTT
[6] = system: A549 cells treated with wt PA14 supernatant; assay: cells; conditions: Homo sapiens, A549, 24 h, read-out: increase in viability of A549 cells
LasB [7] = molecular target: T1, LasB; assay: LasB inhibition assay (FRET-based, in vitro); conditions: for activity of pure LasB: 0.3 nM pure LasB
Protocol: LasB Inhibition Assay. The purification of LasB from P. aeruginosa P14 supernatant as well
as the subsequent performance of the FRET-based in vitro inhibition assay was performed as
described previously.1 All samples were run in duplicate for each condition, and experiments
were performed independently at least twice.

T1 sequence (Q02RJ6 198-498): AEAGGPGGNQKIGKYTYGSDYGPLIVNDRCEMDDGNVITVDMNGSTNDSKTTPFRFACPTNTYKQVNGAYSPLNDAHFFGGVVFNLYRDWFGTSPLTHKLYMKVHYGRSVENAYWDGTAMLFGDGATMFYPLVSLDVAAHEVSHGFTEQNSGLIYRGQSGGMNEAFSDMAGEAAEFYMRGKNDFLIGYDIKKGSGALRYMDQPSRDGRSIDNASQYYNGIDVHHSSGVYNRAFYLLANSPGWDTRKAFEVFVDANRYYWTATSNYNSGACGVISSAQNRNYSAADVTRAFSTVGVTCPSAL
Sequence of MMP-8 (P22894 101-467): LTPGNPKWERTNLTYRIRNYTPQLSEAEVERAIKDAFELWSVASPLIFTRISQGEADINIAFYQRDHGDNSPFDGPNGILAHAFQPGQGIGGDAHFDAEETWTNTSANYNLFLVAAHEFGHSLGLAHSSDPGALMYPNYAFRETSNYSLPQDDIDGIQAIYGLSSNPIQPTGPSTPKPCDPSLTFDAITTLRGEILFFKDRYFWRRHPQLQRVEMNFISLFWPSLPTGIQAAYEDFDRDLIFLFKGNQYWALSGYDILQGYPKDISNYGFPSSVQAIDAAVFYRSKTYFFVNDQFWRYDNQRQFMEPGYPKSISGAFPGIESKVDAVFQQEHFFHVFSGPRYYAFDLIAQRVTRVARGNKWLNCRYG
Sequence of ColH-PD (Q46085 331-721 limits assumed): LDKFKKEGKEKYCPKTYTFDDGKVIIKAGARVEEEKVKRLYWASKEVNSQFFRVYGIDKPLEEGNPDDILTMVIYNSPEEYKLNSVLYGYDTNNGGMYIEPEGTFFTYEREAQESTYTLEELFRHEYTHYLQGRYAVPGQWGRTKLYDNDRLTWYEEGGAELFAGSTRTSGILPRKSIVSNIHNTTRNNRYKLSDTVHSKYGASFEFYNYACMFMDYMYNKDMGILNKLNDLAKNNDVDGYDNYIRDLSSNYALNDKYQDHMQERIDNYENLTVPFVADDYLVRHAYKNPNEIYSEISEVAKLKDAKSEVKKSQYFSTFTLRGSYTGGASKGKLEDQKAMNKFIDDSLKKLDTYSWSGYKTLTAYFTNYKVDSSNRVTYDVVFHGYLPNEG
Sequence of HDAC-3 (O15379 whole entry): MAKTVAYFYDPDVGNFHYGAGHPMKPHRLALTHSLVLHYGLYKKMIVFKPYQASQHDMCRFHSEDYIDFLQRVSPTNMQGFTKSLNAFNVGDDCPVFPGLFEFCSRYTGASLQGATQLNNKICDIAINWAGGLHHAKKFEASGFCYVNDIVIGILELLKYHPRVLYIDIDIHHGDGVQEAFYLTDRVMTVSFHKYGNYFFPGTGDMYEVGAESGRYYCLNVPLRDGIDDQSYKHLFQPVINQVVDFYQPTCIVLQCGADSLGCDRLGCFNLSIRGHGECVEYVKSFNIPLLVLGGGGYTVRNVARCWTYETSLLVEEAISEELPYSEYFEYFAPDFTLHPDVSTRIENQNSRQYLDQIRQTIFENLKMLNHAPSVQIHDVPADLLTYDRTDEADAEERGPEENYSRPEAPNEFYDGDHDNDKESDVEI
Sequence of HDAC-3 (Q9Y618 395-489 partner limits assumed): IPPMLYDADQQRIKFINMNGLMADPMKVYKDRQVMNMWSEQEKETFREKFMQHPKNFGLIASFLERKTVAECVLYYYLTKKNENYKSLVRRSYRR
Sequence of MMP-3 (P08254 100-477): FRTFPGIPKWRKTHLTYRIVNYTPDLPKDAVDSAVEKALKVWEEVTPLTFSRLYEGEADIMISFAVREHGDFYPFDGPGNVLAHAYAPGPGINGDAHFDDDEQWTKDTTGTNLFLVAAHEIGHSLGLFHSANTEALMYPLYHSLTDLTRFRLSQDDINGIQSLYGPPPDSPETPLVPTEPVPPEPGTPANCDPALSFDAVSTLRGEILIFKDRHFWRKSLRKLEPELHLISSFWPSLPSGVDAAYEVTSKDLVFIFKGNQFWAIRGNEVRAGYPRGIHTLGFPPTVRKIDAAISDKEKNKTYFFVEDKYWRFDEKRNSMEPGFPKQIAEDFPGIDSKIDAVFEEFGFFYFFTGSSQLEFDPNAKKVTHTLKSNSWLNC
Sequence of ADAM17 (P78536 215-824): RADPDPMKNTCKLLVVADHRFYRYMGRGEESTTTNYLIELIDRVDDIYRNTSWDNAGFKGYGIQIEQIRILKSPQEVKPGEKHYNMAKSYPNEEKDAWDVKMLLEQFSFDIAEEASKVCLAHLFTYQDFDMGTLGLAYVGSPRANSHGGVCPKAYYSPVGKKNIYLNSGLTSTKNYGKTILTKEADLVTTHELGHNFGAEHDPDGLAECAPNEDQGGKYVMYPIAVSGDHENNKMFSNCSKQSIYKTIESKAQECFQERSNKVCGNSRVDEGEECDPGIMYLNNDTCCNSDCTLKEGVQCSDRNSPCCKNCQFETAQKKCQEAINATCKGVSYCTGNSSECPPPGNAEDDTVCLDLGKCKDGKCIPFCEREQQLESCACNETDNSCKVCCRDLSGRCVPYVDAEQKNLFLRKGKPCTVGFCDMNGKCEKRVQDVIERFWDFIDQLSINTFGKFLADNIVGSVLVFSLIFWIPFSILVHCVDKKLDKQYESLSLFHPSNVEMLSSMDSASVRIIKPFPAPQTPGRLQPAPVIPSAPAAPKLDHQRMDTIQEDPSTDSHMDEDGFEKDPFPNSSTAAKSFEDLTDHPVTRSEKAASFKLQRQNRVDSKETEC

O=C(O)CC1(C(=O)NCc2nc3ccccc3s2)Cc2ccccc2C1 [Compound 1]
IC50 (LasB [1]): 0.159 µM

O=C(CC(=O)Nc1ccc(Cl)c(Cl)c1)NO [Compound 2]
IC50 (LasB [1]): 17.4 µM

O=C(Nc1nc2ccccc2s1)C(S)Cc1ccccc1 (stereo not shown) [Compound 23, N-(Benzo[d]thiazol-2-yl)-2-mercapto-3-phenylpropanamide]
Ki (ColH-PD): 0.1 ± 0.01 µM | MIC (P. aeruginosa PA14; Pseudomonas aeruginosa, P. aeruginosa PA14): > 100 µM | reduction of bacterial growth (P. aeruginosa PA14; at 100 μM): less than 10% | inhibition at 100 µM (MMP-1): < 10% | inhibition at 100 µM (MMP-2): < 10% | inhibition at 100 µM (MMP-3): < 10% | inhibition at 100 µM (MMP-7): < 10% | inhibition at 100 µM (MMP-8): < 10% | inhibition at 100 µM (MMP-14): < 10% | IC50 (ADAM17): 10.4 ± 0.2 µM | IC50 (HDAC-3): > 100 µM | IC50 (HDAC-8): > 100 µM | IC50 [2]: > 100 µM | IC50 [3]: > 100 µM | IC50 (Cytotoxicity assay, A549): > 100 µM | Survival rate % (zebrafish embryos; 2 µM): 100% | Survival rate % (zebrafish embryos; 30 µM): 70% | toxicity (larvae with toxicity signs) (zebrafish embryos; 30 µM, Table S2): 30% | embryo observation (zebrafish embryos; 50 µM, 2 dpf): imp. dev. | embryo observation (zebrafish embryos; 50 µM, 3 dpf): 5 imp. dev. | embryo observation (zebrafish embryos; 50 µM, 4 dpf): 5 imp. dev. | embryo observation (zebrafish embryos; 50 µM, 5 dpf): 5 imp. dev. | Survival rate % (zebrafish embryos; 100 µM): 0% | embryo observation (zebrafish embryos; 100 µM, 2 dpf): imp. dev. | embryo observation (zebrafish embryos; 100 µM, 3 dpf): 5 imp. dev. | embryo observation (zebrafish embryos; 100 µM, 4 dpf): 5 imp. dev. | embryo observation (zebrafish embryos; 100 µM, 5 dpf): 5 imp. dev. | maximum tolerated concentration (MTC) (zebrafish embryos; zebrafish embryos, until 120 hpf): ≤ 30 µM | effect on A549 cells treated with ΔlasB PA14 supernatant (in words) [4]: no effect | survival of larvae (G. mellonella larvae): 70 ± 5% | effect on viability of A549 cells treated with wt PA14 supernatant (in words) [5]: Dose-dependent effect | viability at 50 µM [6]: 80 ± 15% | IC50 (LasB [7]): 0.7 ± 0.1 µM | ligand efficiency (LE) (LasB [7]; calculated from LasB activity): 0.48 | lipophilic ligand efficiency (LLE) (LasB [7]; calculated from LasB activity): 3.21

Cl.O=C(O)CCP(CCC(=O)O)CCC(=O)O [TCEP, Tris(2-carboxyethyl)phosphine hydrochloride]
viability of A549 cells (A549 cells): no effect on cell viability | activity of pure LasB (LasB [7]; 0.6 mM TCEP and lower): no inhibition | activity of pure LasB (LasB [7]; 5 mM and […] TCEP): completely lost
